“And” between values parts separate entries of the source, which are not always exact repeats. Identical values can stand only once. Residues, ends and D or L forms follow the SMILES beside them.
B1: RNase 3: Recombinant human RNase 3, also known as eosinophil cationic protein (ECP), parental protein of the peptide (protein, UniProt P12724 28-160, looked up)
Eosinophil cationic protein: RPPQFTRAQWFAIQHISLNPPRCTIAMRAINNYRWRCKNQNTFLRTTFANVVNVCGNQSIRCPHNRTLNNCHRSRFRVPLLHCDLINPGAQNISNCTYADRPGRRFYVVACDNRDPRDSPRYPVVPVHLDTTI

Key:
planktonic P. aeruginosa [1] = assay: DiSC3(5) cytoplasmic membrane depolarization assay, planktonic; format: cell-based, Pseudomonas aeruginosa; conditions: 10% Triton X-100 as maximum reference
Method: To further investigate the antimicrobial mechanism of action of the peptide, its ability to depolarize P. aeruginosa membranes was evaluated. Depolarization activity was analyzed by the DiSC3(5) assay (Table 5). DiSC3(5) is a fluorescent probe, which is sensitive to membrane potential. The DiSC3(5) fluorescence is quenched upon interaction with intact cell membranes. When the membrane potential is lost, the probe is released to the medium, resulting in an increase of fluorescence that can be recorded as a function of peptide concentration. Thus, the half depolarization action (ED50) was evaluated, defined as the peptide concentration needed to achieve a half-depolarization effect, and the total depolarization activity at final incubation time (Table 3).
(§1) Membrane depolarization was followed using the method described earlier (Torrent M. et al. 2008). Briefly, bacterial cells were grown at 37° C. to an OD600=0.2, centrifuged at 5000×g for 7 min, washed with 5 mM Hepes at pH 7.2 containing 20 mM glucose, and resuspended in 5 mM Hepes-KOH, 20 mM glucose, and 100 mM KCl at pH 7.2 to an OD600=0.05 and 200 μl were transferred to a microtiter plate for planktonic assays. For biofilm assay, 24 h formed P. aeruginosa biofilm in a 96-well microtiter plate were washed three times with sterile PBS. Afterwards P. aeruginosa biofilms were washed with 5 mM Hepes at pH 7.2 containing 20 mM glucose, and rinsed in 5 mM Hepes-KOH, 20 mM glucose, and 100 mM KCl at pH 7.2. In both cases, DiSC3(5) was added to a final concentration of 0.4 μM and changes in the fluorescence were continuously recorded after addition of peptides at 10 μM in a Victor3 plate reader. A maximum reference value for total depolarization is calculated for Triton X-100 at 10%. Alternatively, changes in the fluorescence were continuously recorded after addition of a serially diluted protein/peptides from 50 to 0.1 μM. The peptide concentration required to achieve half of total and total membrane depolarization after 40 min incubation time was estimated from nonlinear regression analysis as previously described (Torrent M. et al. 2010)

[2] = tested on: established P. aeruginosa biofilms; assay: DiSC3(5) membrane depolarization assay on biofilm; format: cell-based, Pseudomonas aeruginosa; conditions: maximum percentage at final incubation time, 10% Triton X-100 reference
Method: as §1
(§2) Thereupon, the antimicrobial mechanism of action of the RNase 3 derived peptide on P. aeruginosa biofilms was further characterized with the depolarization and permeabilization assays. As applied for the P. aeruginosa planktonic culture, the fluorescent DisC3(5) assay was also used here in order to monitor the depolarization activity of the studied protein and peptides against established biofilms. Therefore, we have measured the half depolarization action (ED50), and the total depolarization activity expressed as a percentage (Table 7). […] Similar results were obtained for the Sytox Green permeabilization assay, where the total permeabilization effect was hindered for all the AMPs tested, and between two to ten times higher concentrations were required to achieve half of the biofilm cell permeabilizing effect in comparison to the planktonic cells.

[3] = tested on: established P. aeruginosa biofilms; assay: SYTOX Green membrane permeabilization assay on biofilm; format: cell-based, Pseudomonas aeruginosa; conditions: maximum percentage at final incubation time, 10% Triton X-100 reference
Method: (§3) Membrane permeabilization was followed using the method SYTOX Green Fluorescence membrane permeabilization assay. In the planktonic assay, bacterial cells were grown at 37° C. to an OD600=0.2, centrifuged at 5000×g for 5 min, and resuspended in 1×PBS to an OD600=0.2. An aliquot of 200 μl was then transferred to a microtiter plate. For biofilm assay, 24 h formed P. aeruginosa biofilm in a 96-well microtiter plate were washed three times with sterile PBS. SYTOX Green was added to a final concentration of 1 μM and incubated 15 min in darkness. Changes in the fluorescence were continuously recorded after addition of a serially diluted protein/peptides from 50 to 0.1 μM in a Victor3 plate reader. The peptide concentration required to achieve half of total and total membrane permeabilization achieved after 40 min was estimated from nonlinear regression analysis as previously described (Pulido D. et al. Antimicrob Agents Chemother 2013). A maximum reference value was taken for Triton X-100 at 10%.
as §2

[4] = Biofilm cell mortality, BacTiter-Glo luminescent assay; format: cell-based, Pseudomonas aeruginosa; conditions: 24 h formed biofilm; 4 h at 37° C.; 10% Triton X-100 as maximum reference; N.D. = not detected at 50 μM; read-out: Biofilm cell mortality (%max)
Method: (§4) Bacterial viability was assayed using the BacTiter-Glo™ microbial cell viability kit. Briefly, protein/peptides were dissolved in 10 mM sodium phosphate, 0.1M buffer, pH 7.5, serially diluted from 50 to 0.1 μM and tested in a 96-well microtiter plate containing P. aeruginosa planktonic (OD600˜0.2) or 24 h formed biofilm for 4 h at 37° C. Fifty microliters of BacTiter-Glo™ reagent was added to each well according to the manufacturer's instructions and incubated at room temperature for 15 min. Luminescence was read on a Victor3 plate reader with a 3-s integration time. Fifty percent (ED50) and total inhibitory concentrations were calculated by fitting the data to a dose-response curve.
(§5) As a first approach, the biofilm cell viability was monitored using the BacTiter-Glo™ luminescent assay. Therefore, the antimicrobial action of the studied AMPs was determined on already established P. aeruginosa biolfilms (FIG. 1 and Table 6). […] However, for all the active peptides, the concentrations needed to produce an equivalent effect in biofilms were between 2 to 10 times higher than in planktonic cultures. […] At the same time, we applied the crystal violet technique to assess the peptide ability to disperse pre-established P. aeruginosa biofilms.
(§6) Biofilm formation assay was modified from the previously described protocol (Huedo P. et al. 2014). Briefly, overnight cultures of P. aeruginosa were centrifuged at 5000×g for 5 min, washed and adjusted to an OD600=0.1 in tryptic soy medium (TSB). Two hundred microliters of the bacterial suspension were dispensed in each well of a polystyrene 96-well microtiter plate (Greiner Bio-one, France). The plate was incubated at 37° C. on an orbital shaker (30 rpm). The media was exchanged with fresh pre-warmed TSB after 4 h, in order to remove the non-attached bacteria. After 24 h incubation, the formation of biofilm was then evaluated using the crystal violet staining technique (Stepanovic S. et al. 2000). Briefly, the plates were washed three times with PBS, fixed at 60° C. for 1 h, and stained for 15 min with 200 μl of 0.1% crystal violet. After the dye was discarded, plates were rinsed in PBS and allowed to dry for 30 min at 37° C. Crystal violet was dissolved in 250 μl of 95% ethanol for 15 min, and the OD570 of the extracted dye was measured using a Victor3 plate reader (Perkin-Elmer, Waltham, Mass.).

[5] = tested on: pre-established P. aeruginosa biofilm; assay: Biofilm eradication assay, crystal violet staining; format: cell-based, Pseudomonas aeruginosa; conditions: 24 h formed biofilm; 4 h at 37° C.; 10% Triton X-100 as maximum reference
Method: Following, the biofilm eradication activity was determined (FIG. 1 and Table 6). […] Moreover, the biofilm eradication activity of all the tested reference peptides was well above the maximum concentration tested (50 μM), except for RN3(5-17P22-36) which was able to eradicate the biofilm close to 50 μM.
as §6
Biofilms were grown as above. Twenty-four hour formed P. aeruginosa biofilm was washed three times with sterile PBS, and rinsed with 10 mM sodium phosphate buffer pH 7.5. Each well was treated with increasing protein/peptide concentrations (from 0.01 to 50 μM) and incubated at 37° C. for 4 h. The biofilm eradication was then evaluated using the crystal violet staining technique (Stepanovic S. et al. 2000). The ability of the antimicrobial peptides to disperse and reduce the biofilm mass of preformed biofilms was calculated. The peptide concentration required to achieve total preformed biofilm eradication after 4 h incubation time was estimated. A maximum reference value was taken for Triton X-100 at 10%. The minimum biofilm eradication concentration (MBEC), defined as the protein/peptide concentration where the 99.9% of the biofilm mass is eradicated was estimated.

planktonic P. aeruginosa [6] = assay: SYTOX Green membrane permeabilization assay, planktonic; format: cell-based, Pseudomonas aeruginosa; conditions: 10% Triton X-100 as maximum reference
Method: Further insight into the membrane-permeabilizing effect of the selected AMPs against P. aeruginosa was evaluated by the Sytox Green assay. Local membrane disturbances allow the cell uptake of the fluorescent Sytox Green dye that subsequently stains the cell nucleic acids; the fluorescence increase is registered to monitor the cell membrane permeabilization. Therefore, the half permeabilization action (ED50) was measured, and the total permeabilization activity expressed as a percentage (Table 5). […] On the other hand, WY-12 and CA-M required a 6- to 7-fold greater concentration than RNase 3 to produce half of their permeabilizing effect.
as §3

[7] = tested on: pre-established P. aeruginosa biofilm; assay: Biofilm cell mortality, BacTiter-Glo luminescent assay; format: cell-based, Pseudomonas aeruginosa; conditions: 24 h formed biofilm; 4 h at 37° C.; 10% Triton X-100 as maximum reference; N.D. = not detected at 50 μM
Method: as §4, §5, §6

planktonic P. aeruginosa [8] = format: cell-based, Pseudomonas aeruginosa; conditions: planktonic P. aeruginosa; 4 h at 37° C.; mean ± SEM; N.D. = not detected at 50 μM; read-out: IC50 (50% bacterial viability)
Method: The microbial cell viability was then assayed using the BacTiter-Glo™ luminescent kit. […] No cell reduction was detected for the peptide GL-13 even for the maximum concentration assayed (50 μM).
as §4

[9] = tested on: LPS (lipopolysaccharides) from P. aeruginosa; assay: LPS binding assay, BODIPY TR cadaverine (BC) displacement; parameters: species or system Pseudomonas aeruginosa; conditions: 100% = total displacement of the dye; mean ± SEM
Method: Following, LPS binding affinity was monitored by a fluorometric assay which measures the competitive displacement of a cadaverine fluorescent probe (BC) by the protein and peptides. The half LPS binding affinity (ED50), defined as the AMP concentration needed to achieve half of BC displacement, and the total LPS binding affinity, expressed as a percentage, were determined (Table 4). Interaction with negatively charged surfaces of bacteria is the first step for cationic peptides to reach the bacterial membranes and exert their antimicrobial action.
LPS binding was assessed using the fluorescent probe BODIPY TR cadaverine (BC) as previously described (Pulido D. et al. Febs J 2013). BC binds strongly to native LPS, specifically recognizing the lipid A portion. When a protein that interacts with LPS is added, BC is displaced from the complex and its fluorescence is increased, decreasing its occupancy factor. LPS-binding assays were carried out in a 10 mM Hepes buffer at pH 7.5. The displacement assay was performed using a 96 well microtiter plate containing stirred mixture of either LPS (10 μg/mL) and BC (10 μM). Protein/peptides were serially diluted from 10 to 0.1 μM. Fluorescence measurements were performed on a Victor3 plate reader (Perkin Elmer, Waltham, Mass.). The protein/peptide concentration required to achieve half of total and total BC displacement was estimated from nonlinear regression analysis as previously described (Wood S. J. et al. 2004)

Molecule | Depolarization %max (planktonic P. aeruginosa [1]) | Depolarization Mean % ± SEM [2] | Permeabilization Mean % ± SEM [3] | mortality [4] | Biofilm eradication (%max) [5] | Permeabilization %max (planktonic P. aeruginosa [6]) | Biofilm cell mortality (%max) [7] | IC50 (planktonic P. aeruginosa [8]) | LPS binding %max (percentage of maximum displacement) [9]
CC[C@H](C)[C@H](NC(=O)[C@H](Cc1ccccc1)NC(=O)[C@@H](NC(=O)[C@H](Cc1ccccc1)NC(=O)[C@H](CCCNC(=N)N)NC(=O)[C@H](CCCCN)NC(=O)[C@H](CCCNC(=N)N)NC(=O)[C@H](CCCCN)NC(=O)[C@H](Cc1c[nH]c2ccccc12)NC(=O)[C@H](CC(C)C)NC(=O)[C@@H](NC(=O)[C@@H](N)Cc1ccc(O)cc1)C(C)C)[C@@H](C)CC)C(N)=O [WY-12, YVLWKRKRFIFI-NH2] (H-YVLWKRKRFIFI-NH2; N-terminus assumed) | 44.02 ± 4.01% | 32.58 ± 1.87% | 18.91 ± 2.23% | 39.7 ± 8.93% | 38.36 ± 2.36% | 39.43 ± 1.19% | – | – | –
B1 | – | 46.11 ± 3.21% | 39.4 ± 2.88% | – | – | 45.67 ± 2.29% | ~50% and 67.31 ± 0.79% | 840 ± 30 nM | 99.85 ± 9.51%

— US10487117B2, “Antimicrobial peptide for nosocomial infections” (priority 2015, dated 2019)
